The text below walks through data of patent US11213512B2, “Bis-amino acid based compound and use thereof” (THE CURATORS OF THE UNIVERSITY OF MISSOURI, priority 2016, dated 2022).

One data set deals with HEK-293 cells. As to the kind of experiment: Cytotoxicity to mammalian cells, XTT assay. The format is cell-based, human. The note with it: 24 h; for cytotoxicity to HEK-293 (in words): at MIC against Tet^R E. coli (2: 48, 7: 128, 10: 10 μM); for survival of HEK-293 (in words): two-fold increase over MIC concentration. As to the method:
(§1) It was initially hypothesized that antimicrobial activity resulted from membrane disruption. Membrane active compounds are often cytotoxic to mammalian cells (Shai, Biopolymers 2002, 66, 236-48; Shai, et al., Curr. Protein Pept. Sci. 2006, 7, 479-86). The survival of three mammalian epithelial cell lines was assayed for 2, 3, 5, and 10. […] The cell lines studied were human embryonic kidney (HEK-293), human cervix epithelial (HeLa, ATCC Accession No. CCL-2), and Cercopithecus aethiops kidney (Cos-7, ATCC Accession No. CRL 1651). HeLa cells were acquired from ATCC. Cos-7 and HEK-293 cells were donated by colleagues. Cell lines were regularly maintained in growth media containing DMEM (ATCC), 10% fetal bovine serum (FBS, ATCC) and 1% penicillin-streptomycin solution (ATCC). Adherent HEK-293, HeLa and Cos-7 cells were trypsinized using 0.25% (w/v) trypsin-EDTA (Sigma-Aldrich), suspended in a fresh media and diluted to get a concentration of 3×10^5 cells/ml. Cells were seeded in a 96-well plate (100 μL/well) to get 3×10^4 cells/well. The plates were incubated for 24 hours at 5% CO2 and 37° C. to reach a confluency of 80-90%.
(§2) In a sterile 1.5 mL micro-centrifuge tube, compounds 2, 3, 5, 6, 7 and 10 (0.5% DMSO) were mixed with assay media (DMEM+10% FBS) and serially diluted by 2-fold each to get 2[MIC], [MIC], ½[MIC] and ¼ [MIC] concentrations. A control containing 0.5% DMSO was also prepared. After 24 hours, the spent media in the 96-well plate containing HEK-293, HeLa and Cos-7 cells (90% confluency) was replaced with 100 μL media containing the compounds 2, 3, 5, 6, 7 and 10 at various concentrations. The cells were incubated at 37° C. and 5% CO2 for 24 hours before performing XTT assay (Sigma-Aldrich). The XTT assay was performed according to the manufacturer's protocol. After 24 hours of treatment with compounds, the media was replaced with PBS and 25 μL XTT was added to each well. The XTT assay works by the reduction of tetrazolium compound by alive cells to the colored soluble formazan product. The absorbance of the product was measured at 450 nm (XTT) and 690 nm (background). Percent survival was calculated by comparing the average absorbance of cells treated with compounds 2, 3, 5, 6, 7, and 10 to that of cells alone. Two replicates for each treatment were determined. Average percent survival and standard deviation were calculated.
(§3) Cells were cultured for 24 h in 96-well plates and treated with media containing concentrations using [MIC] and [MIC]×2 determined previously for Tet^R E. coli. The number of surviving cells was determined using an XTT assay (Sigma-Aldrich); the results are represented as percent survival in FIG. 2. Cells alone were used as controls and established 100% survival. The data represent two replicates of three trials and the error bars represent the standard deviation.

Another data set deals with HeLa cells. The data set is described as follows: Cytotoxicity to mammalian cells, XTT assay. The format is cell-based, human. The settings on record: 24 h; for cytotoxicity to HeLa (in words): at MIC against Tet^R E. coli (2: 48, 7: 128, 10: 10 μM); for survival of HeLa (in words): two-fold increase over MIC concentration. As to the method: as §1, §2, §3
A general note: Tetrazolium dyes change colour on reduction, which living cells bring about.

The subject of another data set is Cos-7 cells. The data set is described as follows: Cytotoxicity to mammalian cells, XTT assay. The note with it: 24 h; for cytotoxicity to Cos-7 (in words): at MIC against Tet^R E. coli (2: 48, 7: 128, 10: 10 μM); for percent survival Cos-7: at MIC against Tet^R E. coli (2: 48, 3: 28, 5: 56, 6: 120, 7: 128, 10: 10 μM); for survival of Cos-7 (in words): two-fold increase over MIC / highest concentrations tested. The format is cell-based, Cercopithecus aethiops. As to the method:
as §1, §2, §3

Another data set relates to Tet^R E. coli. As to the kind of experiment: Membrane permeability and viability, confocal microscopy (propidium iodide / fluorescein diacetate). Format: cell-based, Escherichia coli. The note with it: 2 at 24 μM, 10 at 6 μM (~½ MIC), 30 min. As to the method: To test the membrane permeability of the Tet^R E. coli, the bacteria was first grown overnight from one CFU in media containing 100 μg/mL Ampicillin at 37° C. and 200 RPM. Tet^R E. coli was then knocked back to O.D. 600 nm=0.550 before use. In a sterile test tube, cells were added followed by either compounds 2 or 10 at half-MIC concentrations and incubated at 37° C. and 200 RPM. The concentration of DMSO was kept constant at 0.5% —by volume in each case. After 30 minutes of incubation, the cells were washed by centrifugation at 3000×g for 5 minutes and re-suspended in sterile phosphate buffered saline (PBS). Propidium iodide (30 μM, Thermo-Fischer) and fluorescein diacetate (60 μM, Sigma-Aldrich) were added to the Tet^R E. coli cells in the PBS, mixed by vortexing and incubated at 37° C. and 200 RPM. After 30 minutes, the cells were washed again by centrifugation at 3000×g for 5 minutes. The pellet was suspended in a fresh PBS, loaded onto a clean glass slide, covered with a cover slip and observed under Zeiss LSM 700 confocal microscope.
The study was designed to assess the membrane permeability and viability of the E. coli in the presence of BTs 2 and 10. The three panels in FIG. 6 show the bright field (BF) microscopic images (top row), the result when fluorescein diacetate (FDA) is present (middle row), and the presence of propidium iodide (PI, bottom row), if any. […] When it does, it intercalates in DNA, which leads to enhanced fluorescence. Fluorescein diacetate is incorporated into the cells during growth, but is not fluorescent. If the organism is or remains vital, the diester will be hydrolyzed and fluorescein will be observed by its fluorescence emission.
Controls for the permeability/viability assay were included for E. coli in the presence of a final concentration of 0.5% (v/v) DMSO (the vehicle for administration of BTs), and a final concentration of 0.1% […] Triton X-100. […] Thus, less than or equal to 0.5% DMSO (v/v) was always used; the control is shown in the second column. Triton X-100 is a potent detergent, which was used at 0.1% or ˜1,670 μM.

Where [1] appears, read: at MIC against Tet^R E. coli (2: 48, 3: 28, 5: 56, 6: 120, 7: 128, 10: 10 μM).
The mark [2] stands for this setting: at twice the MIC (FIG. 3 legend: 2: 96, 3: 56, 5: 112, 6: 240, 7: 256, 10: 20 μM).

As for `Cl.Cl.N[C@H](Cc1c[nH]c2ccccc12)C(=O)NCCCCCCCCCCCCNC(=O)[C@@H](N)Cc1c[nH]c2ccccc12` [Compound 10, (S)-1-((12-((R)-2-Ammonio-3-(1H-indol-3-yl)propanamido)dodecyl)amino)-3-(1H-indol-3-yl)-1-oxopropan-2-aminium chloride], the “cytotoxicity to HEK-293 (in words)” value in the data set with HEK-293 cells is “minimally toxic”. Besides, the “cytotoxicity to HeLa (in words)” value in the data set with HeLa cells is on record as “moderately toxic”. Further, the “cytotoxicity to Cos-7 (in words)” value in the data set on Cos-7 cells is given as “minimally toxic”. Moreover, the “viability (fluorescein diacetate fluorescence)” value with Tet^R E. coli is given as “vital”.

As to `Cl.Cl.N[C@@H](Cc1c[nH]c2ccccc12)C(=O)Nc1ccccc1NC(=O)[C@@H](N)Cc1c[nH]c2ccccc12` [Compound 5, (2S,2′S)-1,1′-(1,2-Phenylenebis(azanediyl))bis(3-(1H-indol-3-yl)-1-oxopropan-2-aminium) chloride], the “percent survival HEK-293” value in the data set with HEK-293 cells (setting [1]) stood at 100%. The “survival of HEK-293 (in words)” value in the data set on HEK-293 cells was “unaffected”. In addition, the “percent survival HeLa” value in the data set with HeLa cells (setting [1]) was 100%. In the data set on HeLa cells, the “survival of HeLa (in words)” value is “unaffected”. In addition, in the data set on Cos-7 cells, the “percent survival Cos-7” value turned out to be 100% and the “survival of Cos-7 (in words)” value is “unaffected”.

As for `Cl.Cl.N[C@@H](Cc1c[nH]c2ccccc12)C(=O)Nc1cccc(NC(=O)[C@@H](N)Cc2c[nH]c3ccccc23)c1` [Compound 2, (2S,2′S)-1,1′-(1,3-Phenylenebis(azanediyl))bis(3-(1H-indol-3-yl)-1-oxopropan-2-aminium) chloride], the “percent survival HEK-293” value with HEK-293 cells (setting [1]) worked out at 100%. Further, in the data set on HEK-293 cells, the “cytotoxicity to HEK-293 (in words)” value is “no cytotoxicity” and the “survival of HEK-293 (in words)” value was “unaffected”. Further, the “percent survival HeLa” value with HeLa cells (setting [1]) amounted to 100%. In addition, in the data set with HeLa cells, the “cytotoxicity to HeLa (in words)” value was “no cytotoxicity” and the “survival of HeLa (in words)” value was “unaffected”. In the data set on Cos-7 cells, the “percent survival Cos-7” value came to 100%, the “cytotoxicity to Cos-7 (in words)” value is listed as “no cytotoxicity” and the “survival of Cos-7 (in words)” value is on record as “unaffected”. In addition, the “viability (fluorescein diacetate fluorescence)” value in the data set with Tet^R E. coli is “vital”.

Turning to `Cl.Cl.N[C@@H](Cc1c[nH]c2ccccc12)C(=O)NCCCNC(=O)[C@@H](N)Cc1c[nH]c2ccccc12` [Compound 7, (2S,2′S)-1,1′-(Propane-1,3-diylbis(azanediyl))bis(3-(1H-indol-3-yl)-1-oxopropan-2-aminium) chloride], the “cytotoxicity to HEK-293 (in words)” value with HEK-293 cells was “minimally toxic”. Besides, the “cytotoxicity to HeLa (in words)” value with HeLa cells is given as “moderately toxic”. For the same compound, in the data set on Cos-7 cells, the “cytotoxicity to Cos-7 (in words)” value is given as “minimally toxic”.

For the compound `Cl.Cl.N[C@@H](Cc1c[nH]c2ccccc12)C(=O)Nc1ccc(NC(=O)[C@@H](N)Cc2c[nH]c3ccccc23)cc1` [Compound 6, (2S,2′S)-1,1′-(1,4-Phenylenebis(azanediyl))bis(3-(1H-indol-3-yl)-1-oxopropan-2-aminium) chloride], the “percent survival HEK-293” value with HEK-293 cells (setting [1]) is 100%; in the data set with HEK-293 cells (setting [2]), 61%. The figures for the “percent survival HeLa” value with HeLa cells (setting [1]) and in the data set on HeLa cells (setting [2]) were 100% and 29%, respectively. In addition, the “percent survival Cos-7” value in the data set on Cos-7 cells was determined as 100%.

In the case of `Cl.Cl.N[C@H](Cc1c[nH]c2ccccc12)C(=O)Nc1cccc(NC(=O)[C@H](N)Cc2c[nH]c3ccccc23)c1` [Compound 3, (2R,2′R)-1,1′-(1,3-Phenylenebis(azanediyl))bis(3-(1H-indol-3-yl)-1-oxopropan-2-aminium) chloride], the “percent survival HEK-293” value was found to be 100% in the data set with HEK-293 cells (setting [1]) and 62% with HEK-293 cells (setting [2]). Moreover, the “percent survival HeLa” value in the data set with HeLa cells (setting [1]) turned out to be 100%; in the data set with HeLa cells (setting [2]), 29%. For the same compound, the “percent survival Cos-7” value in the data set with Cos-7 cells is on record as 100%.
